What was measured:
caspase-3 = experiment: Immunoblot with anti-cleaved caspase-3 antibody; type: cell-based, rat; details: Doxo, 6 and 24 hour time points
Text: For analyses of Mst1, cells were lysed in a Lysis Buffer A, containing 25 mmol/L NaCl, 25 mmol/L Tris (pH 7.4), 1 mmol/L Na3VO4, 10 mmol/L NaF, 10 mmol sodium pyrophosphate, 0.5 mmol/L EGTA, 0.5 mmol/L AEBSF, 0.5 μ/mL leupeptin, 0.5 μ/mL aprotinin. Samples containing the equal amount of protein were subjected to SDS-PAGE. Proteins were transferred onto polyvinylidene fluoride microporous membranes (Bio Rad, Hercules, Calif.) and probed with primary antibodies. We used anti-Mst1 monoclonal antibody (Transduction Laboratory, Lexington, Ky.) for detection of the carboxyl terminus of Mst1. Affinity purified rabbit polyclonal antibody was raised against animo-terminal ETVQLRNPPRRQLKC (pAb-15) (SEQ ID NO:4) (BioSource International, Camarillo, Calif.) for detection of the amino-terminus of Mst1. Blots were then probed by horseradish peroxidase-conjugated anti-mouse IgG or anti-rabbit IgG (Cell Signaling Technolog Inc., Beverly, Mass.). Antigen-antibody complexes were visualized by the enhanced chemiluminescence system (ECL, Amersham/Pharmacia, Piscataway, N.J.). Polyclonal antibodies raised against cleaved caspase-3 (Cell Signaling Technology Inc.) were used to determine activation of caspase-3, as described (35).

cardiac myocytes [1] = experiment: Morphology of cardiac myocytes (cell shrinkage, cell death); type: cell-based, rat; details: within 6 h
caspase-9 = experiment: Western blot of caspase-9 cleavage; type: cell-based, rat; details: Doxo, 6 and 24 hour time points
cardiac myocytes [2] = experiment: Cell Death Detection ELISA: cytoplasmic accumulation of mono- and oligo-nucleosomes (DNA fragmentation); type: cell-based, rat
Protocol: Primary cultures of ventricular cardiac myocytes were prepared from 1-day-old Crl: (WI) BR-Wistar rats (Charles River Laboratories, Wilmington, Mass.) as described previously (34). A cardiac myocyte rich fraction was obtained by centrifugation through the discontinuous Percoll gradient as described (34). Cells were cultured in the cardiac myocyte culture medium containing Dulbecco's modified Eagle medium (DMEM)/F12 supplemented with 5% horse serum, 4 μg/mL transferrin, 0.7 ng/mL sodium selenite (GIBCO), 2 g/L bovine serum albumin (fraction V), 3 mmol/L pyruvic acid, 15 mmol/L HEPES, 100 μmol/L ascorbic acid, 100 μg/mL ampicillin, 5 μg/mL linoleic acid and 100 μmol/L 5-bromo-2′-deoxyuridine (Sigma). We obtained myocyte cultures in which more than 95% were myocytes, as assessed by immunofluorescence staining with a monoclonal antibody against sarcomeric myosin (MF20). Culture media were changed to serum-free at 24–36 h and then subjected to adenovirus transduction. Myocytes were cultured in the serum-free condition for 48 h before experiments.
Histone-associated DNA fragments were quantified by the Cell Death Detection ELISA (Roche, Indianapolis, Ind.) according to the manufacturer's instruction as described (35) with minor modification for sample preparation. In brief, myocytes were rinsed with PBS three times in order to remove nucleosomes leaked out from necrotic cells and then incubated with the lysis buffer for 30 min. The supernatant containing mono- and oligonucleosomes from the cytoplasmic fraction of apoptotic cells was used for further analyses. DNA fragmentation of the tissue samples was determined by DNA laddering assays. Genomic DNA containing small molecular weight fragments was isolated and analyzed by agarose gel electrophoresis as described (36).

[3] = tested on: Neonatal rat cardiac myocytes; experiment: Phenylephrine-induced hypertrophy of cultured cardiac myocytes; type: cell-based; details: PE 10 μM 48 h, LacZ virus-transduced myocytes
Text: We have previously and above shown that mammalian sterile-20 like kinase 1 (Mst1) plays an important role in mediating cardiac myocyte apoptosis in response to ischemia/reperfusion and doxorubicin treatment. Cardiac specific overexpression of Mst1 in transgenic mice (Tg-Mst1) increases cardiac myocyte apoptosis in the heart and the mice develop dilated cardiomyopathy (DCM) and congestive heart failure within 3 months of age. […] Lack of compensatory cardiac myocyte hypertrophy may adversely affect LV function of Tg-Mst1 because operation of the Frank Starling mechanism could be less efficient at the individual cell level. This study was undertaken in order to elucidate if transient expression of Mst1 has a direct anti-hypertrophic effects in cultured cardiac myocytes in vitro. Neonatal rat cardiac myocytes were transduced with adenoviral vectors (10 MOI) in serum-free conditions for 48 h and then treated with phenylephrine (PE, 10 μM) for 48 h. Phenylephrine stimulates hypertrophy of cardiac myocytes in normal animals. Treatment of LacZ virus-transduced myocytes with PE caused a 2.4 fold increase in the cell size and a 1.7 fold increase in protein/DNA content. […] In summary, Mst1 has a direct anti-hypertrophic effect upon PE-treated cultured cardiac myocytes, possibly affecting other signaling mechanisms, including ERKs.

Mst1 = experiment: In gel myelin basic protein (MBP) kinase assay of cardiac myocyte lysates; type: cell-based, rat; details: in the presence of DEVD-CHO, 100 μM
Protocol: FIGS. 1A, 1B, 1C, 1D and 1E depict Mst1 activity assessed on treatment of cardiac myocytes with chelerythrine (Chele) or calyculin A. (A) Cardiac myocytes were treated with indicated concentrations of chelerythrine for 1 h. Cell lysates were subjected to in-gel myelin basic protein (MBP) kinase assay as well as immunoblotting with anti-cleaved caspase-3 antibody. Results are representative of more than five experiments. (B) Cardiac myocytes were treated with chelerythrine (Chele). In the right panel, myocytes were transduced with either control virus or adenovirus harboring XIAP 48 hours before Chele application. Cell lysates were subjected with immune complex in-gel MBP kinase assays, using anti-Mst1 polyclonal antibody (pAb-15). The activity of cleaved Mst1 is shown. (C) Cardiac myocytes were treated with Chele for the indicated durations. […]
Primary cultures of ventricular cardiac myocytes were prepared from 1-day-old Crl: (WI) BR-Wistar rats (Charles River Laboratories, Wilmington, Mass.) as described previously (34). […] We obtained myocyte cultures in which more than 95% were myocytes, as assessed by immunofluorescence staining with a monoclonal antibody against sarcomeric myosin (MF20). […]

With `COc1cccc2c1C(=O)c1c(O)c3c(c(O)c1C2=O)C[C@@](O)(C(=O)CO)C[C@@H]3O[C@H]1C[C@H](N)[C@H](O)[C@H](C)O1` [Dox, Doxorubicin] the “activation (cleavage) of caspase-3” value (caspase-3) was “time dependent manner”, the “concentrations that dose-dependently induced cell shrinkage” value (cardiac myocytes [1]) was 0.1 to 3 µM and the “activation (cleavage) of caspase-9” value (caspase-9) was “time dependent manner”. For the same molecule, the “OD405 value (DNA fragmentation ELISA)” value (cardiac myocytes [2]; 6 h treatment with 0.5 μM Dox, control virus) was 0.69.
In the case of `CNC[C@H](O)c1cccc(O)c1` [PE, phenylephrine], the “increase in protein/DNA content” value [3] is reported as 1.7 fold and the “increase in the cell size” value [3] is reported as 2.4 fold.
In the case of `COC[C@@H]([C@H](O)[C@H](O)C(=O)NCC[C@H](C)c1nc(/C=C/C[C@@H]2O[C@]3(C[C@@H](O)[C@@H]2C)O[C@H]([C@H](C[C@H](O)[C@H](C)[C@H](O)[C@H](C)/C=C(C)/C(C)=C/C=C/C(C)=C\C#N)OC)[C@H](OP(=O)(O)O)C3(C)C)co1)N(C)C` [calyculin A], the “increase in cytoplasmic accumulation of oligo- and mono-nucleosomes” value (cardiac myocytes [2]; vs untreated, n=4, p<0.05) is reported as 4.3±1.4 fold and the “DNA fragmentation by calyculin A” value (cardiac myocytes [2]; with control virus) is reported as 5.6 fold.
In the case of DEVD-CHO, the “increased activities and cleavage of Mst1 by overexpression of Mst1” value (Mst1) is reported as “attenuated” and the “increases in DNA fragmentation by wild type Mst1” value (cardiac myocytes [2]; in the presence of DEVD-CHO, 100 μM) is reported as “inhibited”.
